Data on 33 compounds can be found in ChEMBL document CHEMBL4007390, “Design, synthesis and biological evaluation of indolin-2-one-based derivatives as potent, selective and efficacious inhibitors of FMS-like tyrosine kinase3 (FLT3)” (Eur J Med Chem, 2017).

By IC50 is commonly meant the concentration needed to halve the response being measured. A low value points to inhibition by little substance.

The source made the active and inactive calls. The calls are words filed in the database; no cut-off is given here.

In the first data set the test system is MV4-11. Nature of the data set: Antitumor activity against human MV4-11 cells xenografted in Harlan nude mouse assessed as tumor growth inhibition at 10 mg/kg, ig qd for 20 days relative to control. The format is functional. To be noted: MV4-11, po, 480 h, read-out: TGI. On the technique in general: Xenograft models place foreign cells or tissue in a host animal.
In the case of `CCN(CC)CCNC(=O)c1c(C)[nH]c(/C=C2\C(=O)Nc3ccc(F)cc32)c1C` [SUNITINIB], the inhibition in vivo at 10 mg/kg stood at 81%.

The next data set concerns MV4-11. Nature of the data set: Antiproliferative activity against human MV4-11 cells harboring FLT3 ITD mutant after 72 hrs by MTS assay. To be noted: MV4-11, 72 h. The format is functional, cell-based. On the technique in general: Tetrazolium dyes change colour on reduction, which living cells bring about.
Take `Cc1[nH]c(/C=C2\C(=O)Nc3ccc(F)cc32)c(C)c1NC(=O)CNC1CCCC1`: the IC50 turned out to be 89.9 nM. `CCCNCC(=O)Nc1c(C)[nH]c(/C=C2\C(=O)Nc3ccc(F)cc32)c1C` had an IC50 of 67.8 nM. In the case of `CCN(CC)CCNC(=O)c1c(C)[nH]c(/C=C2\C(=O)Nc3ccc(F)cc32)c1C` [SUNITINIB], it took 38.5 nM to reach half-maximal inhibition (IC50). For `Cc1[nH]c(/C=C2\C(=O)Nc3ccc(F)cc32)c(C)c1NC(=O)CCN1CCN(C)CC1`, the IC50 came out at 45.3 nM. `Cc1[nH]c(/C=C2\C(=O)Nc3ccc(F)cc32)c(C)c1NC(=O)CCNC1CCCC1` showed an IC50 of 55 nM. This IC50 and that of the compound before are within 1.5-fold of each other. In turn, `CCCCNCCC(=O)Nc1c(C)[nH]c(/C=C2\C(=O)Nc3ccc(F)cc32)c1C` displayed an IC50 of 73.4 nM. On to `Cc1[nH]c(/C=C2\C(=O)Nc3ccc(F)cc32)c(C)c1NC(=O)CCNC1CCCCC1`, for which the IC50 was 119 nM.

`Cc1[nH]c(/C=C2\C(=O)Nc3ccc(F)cc32)c(C)c1NC(=O)CN1CCCC1` registered an IC50 of 74.4 nM. `Cc1[nH]c(/C=C2\C(=O)Nc3ccc(F)cc32)c(C)c1NC(=O)C1CCCNC1` (stereo not drawn) registered an IC50 of 24.1 nM. Compound `CCCN(CCC)CC(=O)Nc1c(C)[nH]c(/C=C2\C(=O)Nc3ccc(F)cc32)c1C` displayed an IC50 above 200 nM. The same measure, in the same setting: the result for `Cc1[nH]c(/C=C2\C(=O)Nc3ccc(F)cc32)c(C)c1NC(=O)CN1CCOCC1` reads 66.1 nM. `Cc1[nH]c(/C=C2\C(=O)Nc3ccc(F)cc32)c(C)c1NC(=O)CNC1CCCCC1` had an IC50 above 200 nM. In turn, `Cc1[nH]c(/C=C2\C(=O)Nc3ccc(F)cc32)c(C)c1NC(=O)CCN1CCNCC1` came in with an IC50 of 39.2 nM. The compound `Cc1[nH]c(/C=C2\C(=O)Nc3ccc(F)cc32)c(C)c1NC(=O)CN(C)C` gave an IC50 of 47.5 nM.

`Cc1[nH]c(/C=C2\C(=O)Nc3ccc(F)cc32)c(C)c1NC(=O)CCNC(C)(C)C` returned an IC50 of 30.3 nM. Regarding `Cc1[nH]c(/C=C2\C(=O)Nc3ccc(F)cc32)c(C)c1NC(=O)CCN1CCCC1`, 20 nM corresponded to half-maximal inhibition (IC50). `Cc1[nH]c(/C=C2\C(=O)Nc3ccc(F)cc32)c(C)c1NC(=O)CN1CCN(C)CC1` yielded an IC50 of 38.5 nM. `CCCN(CCC)CCC(=O)Nc1c(C)[nH]c(/C=C2\C(=O)Nc3ccc(F)cc32)c1C`: the IC50 came to 142 nM. The same measure, in the same setting: the result for `CCN(CC)CC(=O)Nc1c(C)[nH]c(/C=C2\C(=O)Nc3ccc(F)cc32)c1C` reads above 200 nM; that for `CCNCC(=O)Nc1c(C)[nH]c(/C=C2\C(=O)Nc3ccc(F)cc32)c1C`, 43.8 nM; that for `Cc1[nH]c(/C=C2\C(=O)Nc3ccc(F)cc32)c(C)c1NC(=O)C1CCCCN1` (stereo not drawn), 35.6 nM.

For `Cc1[nH]c(/C=C2\C(=O)Nc3ccc(F)cc32)c(C)c1NC(=O)CN1CCNCC1`, the IC50 came to 17.1 nM. Compared with the last compound, the IC50 is about 2.1-fold lower.

Consider `CCNCCC(=O)Nc1c(C)[nH]c(/C=C2\C(=O)Nc3ccc(F)cc32)c1C`, for which the midpoint of inhibition, the IC50, lay at 25.7 nM. `Cc1[nH]c(/C=C2\C(=O)Nc3ccc(F)cc32)c(C)c1NC(=O)[C@@H]1CCCN1`: 41.4 nM corresponded to half-maximal inhibition (IC50). Against the preceding compound, the IC50 is about 1.6-fold higher. Take `Cc1[nH]c(/C=C2\C(=O)Nc3ccc(F)cc32)c(C)c1NC(=O)CNC(C)(C)C`: half-maximal inhibition (IC50) required 158 nM.

In turn, `CCCNCCC(=O)Nc1c(C)[nH]c(/C=C2\C(=O)Nc3ccc(F)cc32)c1C` had an IC50 of 39.4 nM. In turn, `CCN(CC)CCC(=O)Nc1c(C)[nH]c(/C=C2\C(=O)Nc3ccc(F)cc32)c1C` had a 50% inhibitory concentration (IC50) of 36.5 nM. In the case of `Cc1[nH]c(/C=C2\C(=O)Nc3ccc(F)cc32)c(C)c1NC(=O)CCN(C)C`, the half-inhibitory concentration (IC50) came to 27.1 nM. As for `Cc1[nH]c(/C=C2\C(=O)Nc3ccc(F)cc32)c(C)c1NC(=O)CCN1CCOCC1`, it took 60.7 nM to reach half-maximal inhibition (IC50). Compound `Cc1[nH]c(/C=C2\C(=O)Nc3ccc(F)cc32)c(C)c1NC(=O)CCN1CCCCC1` had an IC50 of 33.7 nM. Compound `Cc1[nH]c(/C=C2\C(=O)Nc3ccc(F)cc32)c(C)c1NC(=O)C1CCNCC1` registered an IC50 of 14.7 nM. This IC50 is about 2.3-fold lower than that of the compound before. `CCCCNCC(=O)Nc1c(C)[nH]c(/C=C2\C(=O)Nc3ccc(F)cc32)c1C`: the IC50 was above 200 nM. Take `Cc1[nH]c(/C=C2\C(=O)Nc3ccc(F)cc32)c(C)c1NC(=O)CN1CCCCC1`: the IC50 was above 200 nM.

In the next data set the test system is MV4-11. As to the kind of experiment: Antitumor activity against human MV4-11 cells xenografted in Harlan nude mouse assessed as tumor growth inhibition administered ig qd for 20 days. It is filed as functional. The conditions noted are these: MV4-11, po, 480 h, read-out: MED.
Regarding `CCN(CC)CCNC(=O)c1c(C)[nH]c(/C=C2\C(=O)Nc3ccc(F)cc32)c1C` [SUNITINIB], the minimal effective dose was 10 mg/kg/day.

Test system in the next data set: not listed separately
As to the kind of experiment: Toxicity in Harlan nude mouse xenografted with human MV4-11 cells administered ig qd for 20 days. The conditions noted are these: in vivo, po.
Compound `CCN(CC)CCNC(=O)c1c(C)[nH]c(/C=C2\C(=O)Nc3ccc(F)cc32)c1C` [SUNITINIB] came in with an MTD at 480 h of 80 mg/kg/day.

Another data set has as its system MV4-11. Nature of the data set: Antitumor activity against human MV4-11 cells xenografted in Harlan nude mouse assessed as tumor growth inhibition administered orally measured after 1 week.
Settings: not given
The format is functional, cell-based.
Turning to `Cc1[nH]c(/C=C2\C(=O)Nc3ccc(F)cc32)c(C)c1NC(=O)C1CCNCC1`, the TGI entry is “inactive”.

Test system in the next data set: not listed separately
Nature of the data set: Inhibition of human FLT3 ITD mutant.
Settings: not given
With `CCN(CC)CCNC(=O)c1c(C)[nH]c(/C=C2\C(=O)Nc3ccc(F)cc32)c1C` [SUNITINIB], the IC50 amounted to 1.4 nM. This counts as single-digit nanomolar.
